{"source": "patent US7893260B2", "about": "“Substituted quinazolin-4-one compounds for antagonizing TRPV3 function” (priority 2005, dated 2011)", "key": {"[1]": {"assay": "Plasma levels / pharmacokinetics after IV or oral administration", "format": "in vivo, male Sprague-Dawley rats", "conditions": "PO suspension 50 mg/kg, rat", "protocol": "(§1) The plasma levels of a TRPV3 inhibitor (compound 82) were determined via HPLC/MS/MS following administration to male Sprague-Dawley rats.\nTo evaluate pharmacokinetic properties of this TRPV3 inhibitor, rats were administered a single intravenous (IV) bolus dose of […] or an oral dose of a suspension of 50 mg/kg. For intraveneous administration, the TRPV3 inhibitor solution was formulated in PBS/NaOH, pH 10.5, at a target concentration of 0.25 mg/mL. This solution was administered as a rapid bolus (2-3 seconds) at a dose volume of 4 mL/kg via the tail vein of conscious rats or via a jugular vein catheter in anesthetized rats. For oral administration, the TRPV3 inhibitor was formulated as a uniform suspension in CMC (carboxymethylcellulose) at a target concentration of 5 mg/mL, and administered by oral gavage at a dose volume of 10 mL/kg to conscious rats."}, "[2]": {"assay": "Plasma, brain and CSF levels after IP or PO administration", "format": "in vivo", "conditions": "0.5, 1, 4 hours post IP 200 or 50 mg/kg or PO 200 mg/kg, rats", "description": "For each time point evaluated, plasma levels are depicted by the left-most bar, brain levels are depicted by the center bar, and CSF levels are depicted by the right-most bar. […] For each time point evaluated, plasma levels are depicted by the left-most bar, brain levels are depicted by the center bar, and CSF levels are depicted by the right-most bar. […] For each time point evaluated, plasma levels are depicted by the left-most bar, brain levels are depicted by the center bar, and CSF levels are depicted by the right-most bar."}, "human TRPV3": {"target": "T1, human TRPV3 (Homo sapiens, UniProt Q8NET8)", "T1 construct": "expressed in transfected cells; host or cells: HEK293/TREx (Invitrogen), tetracycline-inducible", "T1 sequence (Q8NET8 1-790)": "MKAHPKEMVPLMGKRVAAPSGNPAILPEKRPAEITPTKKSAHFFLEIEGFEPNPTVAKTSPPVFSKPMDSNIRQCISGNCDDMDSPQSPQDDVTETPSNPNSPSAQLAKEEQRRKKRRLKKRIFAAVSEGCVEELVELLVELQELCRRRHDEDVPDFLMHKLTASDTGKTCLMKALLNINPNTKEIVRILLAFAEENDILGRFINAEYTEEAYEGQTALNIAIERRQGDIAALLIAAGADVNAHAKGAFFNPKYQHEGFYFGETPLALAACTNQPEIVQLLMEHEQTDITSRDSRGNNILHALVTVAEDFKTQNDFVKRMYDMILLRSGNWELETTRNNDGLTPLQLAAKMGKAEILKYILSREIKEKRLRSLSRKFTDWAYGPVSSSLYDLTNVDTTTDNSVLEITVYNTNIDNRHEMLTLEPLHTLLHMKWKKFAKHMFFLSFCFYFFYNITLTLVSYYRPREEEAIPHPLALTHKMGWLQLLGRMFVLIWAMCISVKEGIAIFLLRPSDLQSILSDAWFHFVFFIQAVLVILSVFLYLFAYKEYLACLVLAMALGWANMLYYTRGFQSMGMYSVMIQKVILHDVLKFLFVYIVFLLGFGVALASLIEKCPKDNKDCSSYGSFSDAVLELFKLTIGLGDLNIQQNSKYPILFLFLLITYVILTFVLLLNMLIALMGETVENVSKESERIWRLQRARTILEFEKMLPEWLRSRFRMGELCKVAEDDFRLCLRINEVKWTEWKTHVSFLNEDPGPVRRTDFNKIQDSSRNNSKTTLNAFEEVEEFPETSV", "assay": "Whole-cell patch clamp, cells expressing human TRPV3", "format": "cell-based", "conditions": "human TRPV3 IC50 converted to mass concentration", "description": "(§2) Whole-cell patch clamp experiments permit the detection of currents through the TRPV3 channel in the cell line described above. A glass electrode is brought into contact with a single cell and the membrane is then ruptured, permitting control of the voltage of the cell membrane and measurement of currents flowing across the membrane using the amplifier attached to the electrode. A perfusion system permits control of the extracellular solution, including the addition of blockers and activators of the current. The current can be activated by heating this solution to 28° C. or warmer or by addition of 20 μM 2-APB to the solution.\n(§3) TRPV3 cells were induced 20-48 hours, removed from growth plates, and replated at low density (to attain good single-cell physical separation) on glass coverslips for measurement. In some cases, cells were grown in low density overnight on glass coverslips. Patch clamp recordings were made in the whole-cell mode with a holding potential of −40 mV. […] Currents elicited were quantified at −80 mV and +80 mV. The internal solution consisted of 140 mM cesium aspartate, 10 mM EGTA, 2.27 mM MgCl2, 1.91 mM CaCl2 and 10 mM HEPES, pH to 7.2 with KOH; with 50 nM calculated free Ca^2+. […]\nas §1"}, "[3]": {"test_system": "carrageenan model of acute inflammatory pain", "assay": "Carrageenan model of acute inflammatory pain (thermal hyperalgesia, Hargreaves)", "format": "in vivo, rats", "protocol": "As outlined above, the carrageenan model is a model of acute inflammatory pain. As such, it may be used to evaluate effectiveness in relieving pain caused by inflammation, for example, pain due to arthritis.\nBriefly, naive rats were pretested for sensitivity to a heat stimulus using the Hargreaves apparatus. The next day, 100 μL of λ-carrageenan was injected into the plantar surface of the right hindpaw approximately 4.5 hours before testing. 30-60 minutes before testing the rats were injected intraperitoneally with vehicle or drug (to evaluate the efficacy of a TRPV3 inhibitor administered IP) or were administered vehicle or drug orally (PO; to evaluate the efficacy of a TRPV3 inhibitor administered orally).\nIn this study, the drug administered was either a TRPV3 inhibitor (compound 82), the TRPV1 inhibitor, A-425619 (produced by Abbott; maximal efficacious dose, 40 mg/kg IP; El Kouhen et al, 2005, J Pharmacol Exp Ther 314: 400-4091; Honore et al., 2005, J Pharmacol Exp Ther 314: 410-421), or the non-steroidal anti-inflammatory diclofenac. Following administration of both carrageenan and drug or vehicle control, the thermal escape latency was measured. Data are expressed as a percentage comparing the recorded Paw Withdrawal Latencies (PWLs) in seconds to that pre-carrageenan administration."}, "rat TRPV3": {"target": "T2, rat TRPV3 (Rattus norvegicus, UniProt Q4QYD9)", "T2 construct": "expressed in transfected cells", "T2 sequence (Q4QYD9 1-791)": "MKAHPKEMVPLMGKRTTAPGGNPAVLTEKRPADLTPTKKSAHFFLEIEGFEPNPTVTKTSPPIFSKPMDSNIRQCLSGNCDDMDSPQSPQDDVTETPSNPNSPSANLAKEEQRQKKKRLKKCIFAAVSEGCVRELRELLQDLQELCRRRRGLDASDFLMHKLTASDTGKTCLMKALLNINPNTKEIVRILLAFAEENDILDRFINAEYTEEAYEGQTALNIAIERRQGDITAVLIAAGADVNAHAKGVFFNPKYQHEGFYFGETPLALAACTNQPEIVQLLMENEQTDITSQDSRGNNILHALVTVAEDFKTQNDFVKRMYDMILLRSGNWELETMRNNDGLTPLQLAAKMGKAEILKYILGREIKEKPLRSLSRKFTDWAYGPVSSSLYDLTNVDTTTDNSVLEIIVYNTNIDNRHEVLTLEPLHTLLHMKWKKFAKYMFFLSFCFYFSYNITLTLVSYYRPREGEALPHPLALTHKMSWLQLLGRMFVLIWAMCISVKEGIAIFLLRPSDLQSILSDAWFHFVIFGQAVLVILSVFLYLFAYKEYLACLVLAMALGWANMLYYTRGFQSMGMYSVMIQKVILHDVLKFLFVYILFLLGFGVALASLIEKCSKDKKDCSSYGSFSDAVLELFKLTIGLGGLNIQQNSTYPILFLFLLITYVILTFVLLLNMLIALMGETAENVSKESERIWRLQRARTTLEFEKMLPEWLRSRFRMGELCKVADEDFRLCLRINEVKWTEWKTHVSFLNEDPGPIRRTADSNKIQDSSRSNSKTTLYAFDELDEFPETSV", "assay": "Whole-cell patch clamp, cells expressing rat TRPV3", "format": "cell-based", "conditions": "rat TRPV3 IC50 converted to mass concentration", "description": "as §2, §3, §1"}}}
{"smiles": "COc1cccc(/C=C/c2nc3ccccc3c(=O)n2-c2ccccc2)c1O", "note": "[compound 82]", "values": [{"measurement": "estimated half-life (T1/2)", "setting": "[1]", "value": "one"}, {"measurement": "detection in plasma, brain and CSF (central penetration)", "setting": "[2]", "value": "detected not only in plasma, but also in brain and CSF"}, {"measurement": "effective concentration corresponding to IC50", "setting": "human TRPV3", "value": "approximately 94 ng/mL"}, {"measurement": "reduction of thermal hyperalgesia in carrageenan model", "setting": "[3]; IP, 50 mg/kg", "value": "effective"}, {"measurement": "reduction of thermal hyperalgesia in carrageenan model", "setting": "[3]; IP, 200 mg/kg", "value": "effective"}, {"measurement": "reduction of thermal hyperalgesia in carrageenan model", "setting": "[3]; oral, 200 mg/kg", "value": "effective"}, {"measurement": "reducing pain in the carrageenan model", "setting": "[3]; rats, thermal hyperalgesia", "value": "efficacious in reducing pain"}, {"measurement": "effective concentration corresponding to IC50", "setting": "rat TRPV3", "value": "~0.105", "unit": "mg/L"}]}
